Laboratory results: patent publication US7396643B2, “Method for the screening, the detection and/or the quantification of transcriptional factors” (Eppendorf Array Technologies, S.A., priority 2000, dated 2008)

Assays:
Format in all cases: cell-based
AP-1 = experiment: Microwell colorimetric DNA-binding assay, AP-1 (anti-c-fos); settings: nuclear extracts of WI-38 VA13 cells stimulated 30 min, 0.1 μg/ml PMA + 1 μM ionomycin, FIG. 2C
Source text: Step 1: Binding of the Double Strand Oligonucleotidic Probe on Multi-well Plates
The spacer double strand nucleotide sequences were constructed from the following CMV sequence: • 5′[…] (SEQ ID NO:146) acting as a spacer was linked to a) the NFκB consensus oligonucleotide 5′[…]-3′ (SEQ ID NO:147) b) the CREB consensus oligonucleotide 5′[…]-3′ (SEQ ID NO:148) and c) the AP-1 consensus oligonucleotide 5′[…]-3′ (SEQ ID NO:149). In the example the spacer was of 100 based pairs. […] Plates are then washed and the amount of DNA fixed on streptavidin-coated plates was quantified using the picogreen assay (Molecular Probes, OR, USA). […]
• cells were rinsed with cold PBS150 • cells were left swollen during 3 min in a cold hypotonic buffer (20 mM Hepes pH 7.4, 5 mM NaF, 1 mM Na2MoO4, 0.1 mM EDTA). • Cells were scrapped in 0.5 ml of hypotonic buffer containing 0.2% nonidet P40 and immediately centrifuged during 30 sec at maximal speed (13000 rpm). • The pellet was resuspended in 100 μl of lysis buffer (hypotonic buffer containing 20% glycerol, 0.4 M NaCl, phosphatases and proteases inhibitors cocktail). • The nuclear extract was agitated 30 min at 4° C., and then centrifuged for 10 min at maximal speed (13000 rpm) at 4° C. • The supernatant (=nuclear extract) was frozen at −80° C. and its proteic content was determined by the Bradford assay. […]

NFκB = experiment: Microarray assay for DNA-binding activity of NFκB in nuclear cell extracts; settings: nuclear extracts of WI-38 VA 13 fibroblasts; anti-p50, gold-labelled second antibody, silver; unstimulated cells gave 10
Protocol: Step 1: Binding of the Probes on Glass
Activated glass slides bearing aldehyde groups were purchased from AAT (Belgium).
The slides were first incubated in 0.8 ml of a 50 μg/ml streptavidin solution in a 10 mM phosphate buffer (pH 7.4) containing 10 mM NaCl (PBS10 buffer). After 1 h incubation at 20° C., the plates were washed 3 times for 2 min in PBS150 containing 0.02% Tween 20 and then 2 times 2 min with water. The plates were then incubated for 2 h at 20° C. in 20 ml of PBS150 solution containing 10% non fat dried milk and then washed 5 times 2 min in PBS150 solution.
Spotting was performed with the NFκB consensus probe or with the CREB consensus probe as in example 1. The capture probes were printed onto the microscopic slides with a home made robotic device. 250 μm pins from Genetix (UK) were used. The spots have an average of 400 μm in diameter and the volume dispensed is about 1 nl. The concentration of probes used was 3000 nmolaire. […]
There was no signal for the negative control, while in nuclear cell extracts, activated NFκB is detectable in cell stimulated with IL-1, with a much higher intensity than in unstimulated. The results obtained with the nuclear cell extracts have been quantitated, using a calorimetric microarray reader including the quantification software (AAT, Namur, Belgium). […]

CREB = experiment: Microarray assay of P-CREB, influence of the spacer; settings: whole cell lysates of WI-38 VA 13 fibroblasts, 10 μg/ml forskolin
Protocol: Step 1: Binding of the Probes on Glass.
The binding of probes was obtained as described in the example 3 using the consensus sequence of NF-KB or CREB alone or with a spacer of 50, 100, 150 and 250 bp constructed from the sequence given in example 1.
Step 2 :Binding of NFκB on the Double Strand Probe Fixed on Micro-array
This assay was performed with whole cell lysates from WI-38 VA 13 fibroblasts stimulated with IL-1β (a NFκB activator) or 10 μg/ml of forskolin(to activate CREB). The control was 20 μl of lysis buffer mixed with 30 μl of binding buffer.
Steps 3, 4 and 5: Binding of Antibodies and Detection
The binding of the primary anti-NFκB and anti-PCREB antibodies was then used for reaction on the factors followed by a second gold labelled antibody and a calorimetric detection as in example 3. […] The values for P-CREB with unstimulated cells were 5.5 and 4 respectively with no spacer and with a 100 base spacer. The values for stimulated cells were respectively of 7 and 21 respectively with no spacer and a spacer of 100 bases pairs.

CCCCCCCCCCCCCC(=O)O[C@@H]1[C@@H](C)[C@@]2(O)[C@@H](C=C(CO)C[C@]3(O)C(=O)C(C)=C[C@@H]23)[C@@H]2C(C)(C)[C@]12OC(C)=O [PNA]
signal obtained for the assay of c-fos (AP-1) (AP-1): strongly induced

IL-1: a NFκB activator used to stimulate cells
spot intensity for activated NFκB, stimulated cells (NFκB): 175 grey intensity

C=C[C@@]1(C)CC(=O)[C@]2(O)[C@@]3(C)[C@@H](O)CCC(C)(C)[C@@H]3[C@H](O)[C@H](OC(C)=O)[C@@]2(C)O1 [forskolin]
value for P-CREB, stimulated cells, spacer of 100 base pairs (CREB; probe with 100 bp spacer, unstimulated cells gave 4): 21
value for P-CREB, stimulated cells, no spacer (CREB; probe with no spacer, unstimulated cells gave 5.5): 7
